Among the data in BindingDB's records for doi:10.1016/j.chembiol.2011.05.008 (Stanford University, 2011) are IC50 values, retold here.

*1 amine or outer side, *2 acyl side, *3 side chain or, on linkers, in order; H or OH if unused. Where a SMILES comes first, the peptide text is derived from it. [ ]: non-standard residue; d: D form. The star is where a group is joined. ξ: configuration not given here. ξThr(3S) = C[C@H](O[*:3])C(N[*:1])C(=O)[*:2]; X2 = O=C(CN*)COC(=O)c1c2ccccc2cc2ccccc12; X1 = O=C(Cc1ccc(O)c([N+](=O)[O-])c1)*

Broadly, the IC50 is the concentration at which inhibition is half-maximal.

Common to all, as to experiment: Fluorogenic Assay
Holding throughout (details): pH 8; 37 °C

In test [1] the target is T1, Sentrin-specific protease 2 (Homo sapiens, UniProt Q9HC62).
T1 sequence (Q9HC62 whole entry): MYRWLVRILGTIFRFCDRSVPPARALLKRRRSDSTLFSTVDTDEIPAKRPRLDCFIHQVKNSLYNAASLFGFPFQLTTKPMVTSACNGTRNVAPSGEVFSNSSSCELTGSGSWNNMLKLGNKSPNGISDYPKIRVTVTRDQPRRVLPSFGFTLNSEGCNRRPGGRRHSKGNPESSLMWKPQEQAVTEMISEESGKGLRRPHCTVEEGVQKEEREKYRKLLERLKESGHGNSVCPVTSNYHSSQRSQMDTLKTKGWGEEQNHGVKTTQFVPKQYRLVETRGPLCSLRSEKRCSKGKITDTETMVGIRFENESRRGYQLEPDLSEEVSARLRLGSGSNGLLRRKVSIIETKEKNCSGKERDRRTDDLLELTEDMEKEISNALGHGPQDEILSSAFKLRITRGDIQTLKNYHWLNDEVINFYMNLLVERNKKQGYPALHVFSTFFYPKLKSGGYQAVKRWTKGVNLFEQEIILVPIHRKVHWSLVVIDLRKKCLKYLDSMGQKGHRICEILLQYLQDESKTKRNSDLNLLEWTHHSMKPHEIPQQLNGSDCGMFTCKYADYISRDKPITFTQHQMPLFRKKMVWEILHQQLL

Test [2] deals with T2, Sentrin-specific protease 7 (Homo sapiens, UniProt Q9BQF6).
T2 sequence (Q9BQF6 whole entry): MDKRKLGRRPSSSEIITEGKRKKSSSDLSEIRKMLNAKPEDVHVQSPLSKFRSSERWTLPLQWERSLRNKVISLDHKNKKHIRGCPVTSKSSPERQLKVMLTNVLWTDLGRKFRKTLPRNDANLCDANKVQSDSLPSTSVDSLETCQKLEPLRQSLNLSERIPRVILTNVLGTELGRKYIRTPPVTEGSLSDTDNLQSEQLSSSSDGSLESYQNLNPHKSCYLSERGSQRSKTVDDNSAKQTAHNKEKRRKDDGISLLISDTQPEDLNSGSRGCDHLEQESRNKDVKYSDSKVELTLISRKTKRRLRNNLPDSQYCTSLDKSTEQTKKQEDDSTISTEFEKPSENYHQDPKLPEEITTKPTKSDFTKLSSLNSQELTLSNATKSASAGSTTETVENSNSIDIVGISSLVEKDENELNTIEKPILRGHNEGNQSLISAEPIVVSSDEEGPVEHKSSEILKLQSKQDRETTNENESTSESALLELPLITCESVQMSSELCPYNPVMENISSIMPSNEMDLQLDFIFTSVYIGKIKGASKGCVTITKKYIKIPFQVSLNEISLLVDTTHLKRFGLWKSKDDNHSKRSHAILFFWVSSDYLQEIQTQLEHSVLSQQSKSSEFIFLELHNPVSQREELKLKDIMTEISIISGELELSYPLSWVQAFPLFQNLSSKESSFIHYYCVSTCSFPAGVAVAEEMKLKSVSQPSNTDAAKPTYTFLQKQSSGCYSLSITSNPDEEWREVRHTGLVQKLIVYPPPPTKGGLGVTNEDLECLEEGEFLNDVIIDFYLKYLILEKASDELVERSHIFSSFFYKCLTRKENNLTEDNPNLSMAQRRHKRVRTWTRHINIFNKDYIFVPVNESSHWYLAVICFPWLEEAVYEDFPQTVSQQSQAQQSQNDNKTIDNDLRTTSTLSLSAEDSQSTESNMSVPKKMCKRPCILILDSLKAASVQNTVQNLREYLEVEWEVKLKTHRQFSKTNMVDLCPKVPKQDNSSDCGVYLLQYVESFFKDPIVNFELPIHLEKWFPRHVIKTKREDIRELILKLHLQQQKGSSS

In test [3] the target is T3, Sentrin-specific protease 6 (Homo sapiens, UniProt Q9GZR1).
T3 sequence (Q9GZR1 whole entry): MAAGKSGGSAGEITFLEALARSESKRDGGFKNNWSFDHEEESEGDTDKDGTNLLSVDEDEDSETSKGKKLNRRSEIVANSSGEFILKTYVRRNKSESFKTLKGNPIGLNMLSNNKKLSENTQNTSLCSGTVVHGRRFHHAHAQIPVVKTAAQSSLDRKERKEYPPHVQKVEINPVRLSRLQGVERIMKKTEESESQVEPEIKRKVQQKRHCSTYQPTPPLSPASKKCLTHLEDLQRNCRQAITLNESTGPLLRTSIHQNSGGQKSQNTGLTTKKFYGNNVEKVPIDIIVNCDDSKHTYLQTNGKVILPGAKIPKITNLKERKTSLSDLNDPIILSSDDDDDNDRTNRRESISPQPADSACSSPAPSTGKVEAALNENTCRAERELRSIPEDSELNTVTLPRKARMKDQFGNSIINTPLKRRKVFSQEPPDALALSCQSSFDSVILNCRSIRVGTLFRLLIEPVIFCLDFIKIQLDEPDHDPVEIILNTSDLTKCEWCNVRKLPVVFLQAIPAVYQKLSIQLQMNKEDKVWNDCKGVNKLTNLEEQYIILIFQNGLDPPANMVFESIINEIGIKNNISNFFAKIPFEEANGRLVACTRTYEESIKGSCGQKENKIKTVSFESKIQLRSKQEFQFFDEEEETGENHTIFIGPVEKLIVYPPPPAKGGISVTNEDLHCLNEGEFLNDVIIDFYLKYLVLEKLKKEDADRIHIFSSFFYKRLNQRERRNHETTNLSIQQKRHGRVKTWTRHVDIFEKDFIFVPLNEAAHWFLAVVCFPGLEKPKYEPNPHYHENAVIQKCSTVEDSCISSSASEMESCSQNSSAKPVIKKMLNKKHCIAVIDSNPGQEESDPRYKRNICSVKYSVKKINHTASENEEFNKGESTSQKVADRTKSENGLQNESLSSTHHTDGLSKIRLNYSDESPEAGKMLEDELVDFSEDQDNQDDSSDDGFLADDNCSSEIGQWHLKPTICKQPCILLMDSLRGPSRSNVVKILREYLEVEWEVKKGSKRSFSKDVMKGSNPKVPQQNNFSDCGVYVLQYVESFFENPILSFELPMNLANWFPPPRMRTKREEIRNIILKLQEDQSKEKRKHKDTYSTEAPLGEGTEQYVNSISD

Test [4] deals with T4, Sentrin-specific protease 1 (Homo sapiens, UniProt Q9P0U3).
T4 sequence (Q9P0U3 whole entry): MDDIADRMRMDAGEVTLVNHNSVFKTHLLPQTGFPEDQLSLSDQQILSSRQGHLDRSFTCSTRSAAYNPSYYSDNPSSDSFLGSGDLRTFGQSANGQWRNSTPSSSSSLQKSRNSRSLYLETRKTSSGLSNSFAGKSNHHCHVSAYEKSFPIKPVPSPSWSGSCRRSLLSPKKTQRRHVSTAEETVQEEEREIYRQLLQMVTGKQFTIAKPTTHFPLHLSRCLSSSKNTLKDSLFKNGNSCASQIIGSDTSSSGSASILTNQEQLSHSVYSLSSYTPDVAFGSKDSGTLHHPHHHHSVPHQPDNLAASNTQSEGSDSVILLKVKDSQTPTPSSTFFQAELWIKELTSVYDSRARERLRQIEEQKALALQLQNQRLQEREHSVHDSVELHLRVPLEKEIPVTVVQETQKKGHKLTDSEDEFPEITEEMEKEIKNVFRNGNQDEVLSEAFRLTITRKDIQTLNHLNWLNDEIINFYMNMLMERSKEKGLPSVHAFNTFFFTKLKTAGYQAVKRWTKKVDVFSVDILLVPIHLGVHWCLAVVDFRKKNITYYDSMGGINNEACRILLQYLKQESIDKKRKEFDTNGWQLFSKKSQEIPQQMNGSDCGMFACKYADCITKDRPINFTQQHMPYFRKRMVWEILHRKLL
As to the method: The fluorogenic substrate library screen was performed with hSENP1 in low salt tris buffer at final concentration of 2uM. Fluorophore release (AFC) production was measured using fluorescence plate reader at 405nm/510nm for 10-60min.

As to `O=C(O)CN(NC(=O)c1ccc(CNC(=O)c2cccc(C(=O)O)c2)cc1)C(=O)[C@H]1O[C@@H]1C(=O)N(Cc1cccc2ccccc12)Cc1cccc2ccccc12` [JCP-666], the concentration for half-maximal inhibition (IC50) in test [1] was 7 µM; in test [2], greater than 70 µM; in test [3], greater than 100 µM; in test [4] it was 13.8 µM.
The corresponding values for `O=C(O)c1cccc(C(=O)NCc2ccc(C(=O)NNC(=O)[C@H]3O[C@@H]3C(=O)N(Cc3cccc4ccccc34)Cc3cccc4ccccc34)cc2)c1` [VEA-260] are 3.7 µM, 36.5 µM, greater than 100 µM and 7.1 µM.
For `O=C(CNC(=O)c1ccc(CNC(=O)c2cccc(C(=O)O)c2)cc1)COC(=O)c1c2ccccc2cc2ccccc12` [VEA-401], the IC50 in test [1] is 13.4 µM; in test [2], greater than 20 µM; in test [3], greater than 40 µM; in test [4] it was 23.1 µM.
For `NC(=O)CNC(=O)c1ccc(C(=O)NNC(=O)[C@H]2O[C@@H]2C(=O)N(Cc2cccc3ccccc23)Cc2cccc3ccccc23)cc1` [VEA-417] the same measures were 13.1 µM, greater than 70 µM, greater than 100 µM and 32.5 µM.
Take `NC(=O)[C@H](CC(=O)O)NC(=O)c1ccc(C(=O)NNC(=O)[C@H]2O[C@@H]2C(=O)N(Cc2cccc3ccccc23)Cc2cccc3ccccc23)cc1` [VEA-422]: the IC50 in test [1] was 10.4 µM; in test [2] it was greater than 70 µM; in test [3] it was greater than 100 µM; in test [4], 22.4 µM.
For `C[C@H](O)C(NC(=O)[C@H](CCC(N)=O)NC(=O)Cc1ccc(O)c([N+](=O)[O-])c1)C(=O)NCC(=O)NCC(=O)COC(=O)c1c2ccccc2cc2ccccc12` (some centres not stated) [VEA-499] the same measures were 0.25 µM, greater than 100 µM, greater than 60 µM and 3.6 µM.
For `C[C@H](O)C(NC(=O)[C@H](CCC(N)=O)NC(=O)[C@H](CCC(N)=O)NC(=O)Cc1ccc(O)c([N+](=O)[O-])c1)C(=O)NCC(=O)NCC(=O)COC(=O)c1c2ccccc2cc2ccccc12` (stereo partly drawn) [VEA-500] (X1-QQ[ξThr(3S)]G-X2) the same measures were 0.86 µM, greater than 100 µM, greater than 40 µM and greater than 20 µM.
With `CC(C)C[C@H](NC(=O)Cc1ccc(O)c([N+](=O)[O-])c1)C(=O)N[C@@H](CCCNC(=N)N)C(=O)NCC(=O)NCC(=O)COC(=O)c1c2ccccc2cc2ccccc12` [VEA-561], the concentration for half-maximal inhibition (IC50) in test [1] is 5.7 µM; in test [2], 4.3 µM; in test [3], 4.2 µM; in test [4], greater than 25 µM.
